Data reported in article PMC7070682, “Alpha-Glucosidase- and Lipase-Inhibitory Phenalenones from a New Species of Pseudolophiostoma Originating from Thailand” (Molecules, 2020).
In brackets after ≈: the same amount, converted by molar mass.

Tests used:
[1] = target: α-glucosidase; assay: α-Glucosidase assay (p-NPG substrate); assay type: biochemical
Description: α-Glucosidase assay. The substrates p-nitrophenyl α-glucopyranoside (p-NPG) and α-glucosidase were purchased from Sigma (St. Louis, USA). […] The standard assay protocol established by the Enzyme Inhibition Laboratory was adopted with minor modifications. First, 0.85 units/mL enzyme and 0.7mM of substrate were used for the initial screening of the fungal extracts, and 100mM sodium phosphate buffer containing 50 mM NaCl was prepared in deionized water (pH 6.8). The change in the absorbance was monitored initially before incubation and 30 min after the addition of p-NPG substrate. Percentage inhibition of enzyme by various test compounds was calculated using the formula: % inhibition= (ABS of Blank −ABS of Sample)/ABS of Blank× 100

[2] = tested on: HeLa (KB3.1) cells; assay: Cytotoxicity assessment vs. KB3.1; assay type: cell-based; conditions: Homo sapiens, KB 3-1
Description: (§1) To verify the predicted toxicity of compounds 1–3, a cytotoxicity assessment (Table 4) was performed against mouse fibroblast (L929) and HeLa (KB3.1) cells, as previously reported.
(§2) The cytotoxic effects of the compounds were evaluated using a standard procedure.

[3] = tested on: mouse fibroblast (L929) cells; assay: Cytotoxicity assessment vs. L929; assay type: cell-based
Description: as §1, §2

[4] = target: T1, porcine lipase (Sus scrofa, UniProt P00591); assay: Pancreatic lipase assay (p-nitrophenyl butyrate hydrolysis); assay type: biochemical; conditions: for IC50: p-nitrophenyl butyrate substrate
T1 sequence (P00591 1-450): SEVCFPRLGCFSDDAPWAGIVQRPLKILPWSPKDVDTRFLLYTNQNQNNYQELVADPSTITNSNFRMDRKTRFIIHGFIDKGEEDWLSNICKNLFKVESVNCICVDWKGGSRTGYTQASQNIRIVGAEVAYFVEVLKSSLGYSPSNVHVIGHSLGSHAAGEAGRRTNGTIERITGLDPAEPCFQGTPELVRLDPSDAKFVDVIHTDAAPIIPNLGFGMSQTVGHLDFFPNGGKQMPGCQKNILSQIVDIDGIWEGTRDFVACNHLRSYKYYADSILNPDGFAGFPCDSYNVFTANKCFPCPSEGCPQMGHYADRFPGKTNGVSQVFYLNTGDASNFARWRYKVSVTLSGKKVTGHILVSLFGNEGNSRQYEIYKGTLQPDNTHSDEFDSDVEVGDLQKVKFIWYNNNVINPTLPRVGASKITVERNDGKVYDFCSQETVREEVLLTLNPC
Description: Pancreatic Lipase Assay. […] Thirty five microliters of each test compound in DMSO, 15 µL of pancreatic lipase enzyme (1 mg/mL buffer), and 45 µL Tris-HCl buffer (2.5 mmol Tris, pH = 7.4 and 2.5 mmol NaCl) were mixed in a 96 well microtiter plate and incubated at 25 °C for 15 min. The enzymatic hydrolysis was started upon the addition of 15 µL p-nitrophenyl butyrate (p-NPB). The number of p-nitrophenolate ions generated by the reaction was monitored using microplate reader, measured before incubation and 30 min after the addition of the substrate with corresponding change in absorbance at 405 nm.

[5] = design: method as in PMID 21923104; conditions: previously shown; cited from earlier work

Row | IC50 [1] | IC50 [4] | SMILES | IC50 [2] | IC50 [3] | antimicrobial activities [5] | times more potent than orlistat (lipase inhibition) ([4]; relative to positive control orlistat)
1 | 48.7 µM | 3.4 µM | Cc1cc(O)c2c3c(c(O)c4c(c13)O[C@@H](C)C4(C)C)C(=O)C(=O)O2 [Compound 1, scleroderolide] | 21 µg/mL (≈ 64 µM) | 15 µg/mL (≈ 45.7 µM) |  | 
2 | > 100 µM | > 100 µM | Cc1cc(O)cc2c1C1=C(C(=O)C2=O)C(C)(C)[C@H](C)O1 [Compound 3, trypethelone] | 4.2 µg/mL (≈ 15.4 µM) | 2.7 µg/mL (≈ 9.92 µM) |  | 
3 |  |  | C/C(=C\c1csc(C)n1)[C@@H]1C[C@@H]2O[C@]2(C)CCC[C@H](C)[C@H](O)[C@@H](C)C(=O)C(C)(C)[C@@H](O)CC(=O)O1 [Epothilone B, reference compound] | 4e-05 µg/mL (≈ 7.88e-05 µM) | 0.0009 µg/mL (≈ 0.00177 µM) |  | 

Row | SMILES | IC50 [1] | IC50 [4] | IC50 [2] | IC50 [3] | antimicrobial activities [5] | times more potent than orlistat (lipase inhibition) ([4]; relative to positive control orlistat)
4 | Cc1cc(O)c2c3c(c(O)c4c(c13)O[C@@H](C)C4(C)C)C(=O)C2=O [Compound 2, sclerodione] | 120 µM | 1 µM | 18 µg/mL (≈ 57.6 µM) | 27 µg/mL (≈ 86.4 µM) | moderate | 9 times
